Measured values as given in article PMC12494099, “Discovery and Characterization of Novel IKZF1/3 Glue Degraders against Multiple Hematological Cancer Cell Lines” (Oncology Research, 2025).

Key:
Type in all cases: cell-based
MOLM-13 = assay: Cell viability (CCK-8) assay; conditions: Homo sapiens, MOLM-13; AML, 96 h; read-out: IC50 (μM) MOLM-13
Procedure, shortened: (§1)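 CCK-8 read-out of viability was used to gauge antiproliferative activity. Each well held 15,000 cells, and compounds were added after plating.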

MUTZ-1 = assay: Cell viability (CCK-8) assay; conditions: AML, 96 h; read-out: IC50 (μM) MUTZ-1
Procedure, shortened: as §1

NCI-H929 = assay: Cell viability (CCK-8) assay; conditions: Homo sapiens, NCI-H929, 96 h
Procedure, shortened: as §1

OPM-2 = assay: Cell viability (CCK-8) assay; conditions: Homo sapiens, OPM-2; MM, 96 h; read-out: IC50 (μM) OPM-2
Procedure, shortened: as §1

RPMI-8226 = assay: Cell viability (CCK-8) assay; conditions: Homo sapiens, RPMI-8226; MM, 96 h; read-out: IC50 (μM) RPMI-8226
Procedure, shortened: as §1

SU-DHL-4 = assay: Cell viability (CCK-8) assay; conditions: Homo sapiens, SU-DHL-4; DLBCL, 96 h; read-out: IC50 (μM) SU-DHL-4
Procedure, shortened: as §1

Skm-1 = assay: Cell viability (CCK-8) assay; conditions: Homo sapiens, SKM-1; AML, 96 h; read-out: IC50 (μM) Skm-1
Procedure, shortened: as §1

U2932 = assay: Cell viability (CCK-8) assay; conditions: Homo sapiens, U2932; DLBCL, 96 h; read-out: IC50 (μM) U2932
Procedure, shortened: as §1

endogenous CK1α = biological target: T1, endogenous CK1α (Homo sapiens, UniProt P48729); assay: Immunoblot analysis of endogenous protein; conditions: both NCI-H929 and MV-4-11 cells, up to 10 μM, 24 h
T1 construct: endogenous in cells; host or cells: NCI-H929 and MV-4-11
T1 sequence (Q96SW2 whole entry partner): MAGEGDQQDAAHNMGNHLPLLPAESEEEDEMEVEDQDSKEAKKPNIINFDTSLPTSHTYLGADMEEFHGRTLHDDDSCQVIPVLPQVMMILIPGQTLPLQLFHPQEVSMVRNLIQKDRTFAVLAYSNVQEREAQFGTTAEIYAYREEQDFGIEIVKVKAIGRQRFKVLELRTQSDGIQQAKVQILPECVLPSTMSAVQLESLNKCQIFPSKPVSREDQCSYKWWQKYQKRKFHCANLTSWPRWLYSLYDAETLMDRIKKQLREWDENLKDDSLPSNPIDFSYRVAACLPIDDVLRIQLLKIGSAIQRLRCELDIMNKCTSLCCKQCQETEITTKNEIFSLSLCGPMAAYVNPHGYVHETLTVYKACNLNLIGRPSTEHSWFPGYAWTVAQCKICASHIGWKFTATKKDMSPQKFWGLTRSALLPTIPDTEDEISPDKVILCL
T1 sequence (Q16531 whole entry partner): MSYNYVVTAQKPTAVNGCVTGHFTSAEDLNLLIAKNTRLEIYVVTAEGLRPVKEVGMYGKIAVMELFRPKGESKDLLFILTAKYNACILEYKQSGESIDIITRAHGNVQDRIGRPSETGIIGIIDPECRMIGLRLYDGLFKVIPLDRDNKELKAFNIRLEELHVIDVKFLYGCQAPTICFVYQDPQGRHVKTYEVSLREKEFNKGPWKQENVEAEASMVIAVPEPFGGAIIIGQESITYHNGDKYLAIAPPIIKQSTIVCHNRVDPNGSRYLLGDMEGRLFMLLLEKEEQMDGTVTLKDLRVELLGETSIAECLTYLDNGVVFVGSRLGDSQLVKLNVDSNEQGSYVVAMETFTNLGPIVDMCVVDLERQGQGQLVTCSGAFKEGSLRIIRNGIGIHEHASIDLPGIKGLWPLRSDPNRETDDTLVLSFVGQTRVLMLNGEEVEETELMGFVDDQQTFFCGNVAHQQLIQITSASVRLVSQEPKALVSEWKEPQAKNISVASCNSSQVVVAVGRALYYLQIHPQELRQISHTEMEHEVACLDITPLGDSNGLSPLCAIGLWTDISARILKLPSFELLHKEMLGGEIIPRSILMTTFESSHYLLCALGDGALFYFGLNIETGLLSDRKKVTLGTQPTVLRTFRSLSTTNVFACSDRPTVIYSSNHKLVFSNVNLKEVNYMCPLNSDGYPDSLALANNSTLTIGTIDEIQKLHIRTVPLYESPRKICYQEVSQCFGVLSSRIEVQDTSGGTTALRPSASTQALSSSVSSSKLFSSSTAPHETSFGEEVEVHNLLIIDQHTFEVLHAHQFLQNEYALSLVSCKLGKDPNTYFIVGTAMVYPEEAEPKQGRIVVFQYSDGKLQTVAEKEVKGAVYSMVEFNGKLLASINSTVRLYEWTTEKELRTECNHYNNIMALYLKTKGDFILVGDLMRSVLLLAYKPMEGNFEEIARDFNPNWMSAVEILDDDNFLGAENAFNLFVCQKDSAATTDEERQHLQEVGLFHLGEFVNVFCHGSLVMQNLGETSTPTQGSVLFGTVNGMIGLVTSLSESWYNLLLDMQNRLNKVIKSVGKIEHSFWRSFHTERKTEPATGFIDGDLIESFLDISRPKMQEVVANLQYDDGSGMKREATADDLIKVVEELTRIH
T1 sequence (P48729 whole entry): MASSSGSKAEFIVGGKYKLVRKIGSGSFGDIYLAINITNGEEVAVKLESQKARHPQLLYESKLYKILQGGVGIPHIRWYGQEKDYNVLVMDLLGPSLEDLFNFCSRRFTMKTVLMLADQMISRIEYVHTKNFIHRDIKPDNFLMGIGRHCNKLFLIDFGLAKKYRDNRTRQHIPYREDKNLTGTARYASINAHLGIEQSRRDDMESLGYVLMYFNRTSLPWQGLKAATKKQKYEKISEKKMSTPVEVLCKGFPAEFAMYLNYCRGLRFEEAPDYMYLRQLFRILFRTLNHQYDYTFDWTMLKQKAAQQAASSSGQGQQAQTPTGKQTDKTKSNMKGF
Protocol: (§2) Cells (NCI-H929 and MV-4-11) were plated into 6-well plates. They were then treated with different concentrations (0, 0.01, 0.1, 1, 10 μM) of the compounds (MGD-A7, MGD-C9) or the designated time periods. Afterward, the cells were washed with phosphate-buffered saline (PBS, pH = 7.2–7.4, 1×). Next, they were lysed using RIPA buffer (#R0278-500ML, Sigma-Aldrich, MO, USA), and the cell lysates were precisely measured. Following this, the total protein lysates underwent 10% sodium dodecyl sulfate-polyacrylamide gel electrophoresis (SDS-PAGE). This method efficiently separated the proteins based on their molecular weights. Subsequently, the separated proteins were transferred onto a nitrocellulose membrane (#HATF00010, […], Madison, WI, USA). The membranes were then successively incubated with the indicated primary antibodies. These antibodies were diluted in 5% bovine serum albumin (BSA) in Tris-buffered saline with Tween 20 (TBST, #TF103; Epizyme, Shanghai, China). The incubation was conducted overnight at 4°C with gentle agitation. The secondary antibodies were also diluted in 5% BSA in TBST (#TF103; Epizyme, Shanghai, China). […] Finally, after thorough washing with TBST, the membranes were developed using an enhanced chemiluminescence (ECL) substrate (#WBULS0100, Sigma-Aldrich). The chemiluminescent signal was detected, and membrane images were captured with an Imaging system (Bio-Rad, Hercules, CA, USA). ImageJ analysis software (V1.8.0.112, National Institutes of Health, NIH, Bethesda, MD, USA) was employed to analyze the intensity of protein bands, aiming to quantify the relative expression levels of the target proteins. The half-maximal degradation concentration (DC50) value, which indicates the concentrations of test compounds showing 50% protein degradation efficacy, was calculated using GraphPad Prism 8.0.

endogenous GSPT1 = biological target: T2, endogenous GSPT1 (Homo sapiens, UniProt P15170); assay: Immunoblot analysis of endogenous protein; conditions: both NCI-H929 and MV-4-11 cells, up to 10 μM, 24 h
T2 construct: endogenous in cells; host or cells: NCI-H929 and MV-4-11
T2 sequence (Q96SW2 whole entry partner): as the sequence (Q96SW2 whole entry partner) above
T2 sequence (Q16531 whole entry partner): as the sequence (Q16531 whole entry partner) above
T2 sequence (P15170 whole entry): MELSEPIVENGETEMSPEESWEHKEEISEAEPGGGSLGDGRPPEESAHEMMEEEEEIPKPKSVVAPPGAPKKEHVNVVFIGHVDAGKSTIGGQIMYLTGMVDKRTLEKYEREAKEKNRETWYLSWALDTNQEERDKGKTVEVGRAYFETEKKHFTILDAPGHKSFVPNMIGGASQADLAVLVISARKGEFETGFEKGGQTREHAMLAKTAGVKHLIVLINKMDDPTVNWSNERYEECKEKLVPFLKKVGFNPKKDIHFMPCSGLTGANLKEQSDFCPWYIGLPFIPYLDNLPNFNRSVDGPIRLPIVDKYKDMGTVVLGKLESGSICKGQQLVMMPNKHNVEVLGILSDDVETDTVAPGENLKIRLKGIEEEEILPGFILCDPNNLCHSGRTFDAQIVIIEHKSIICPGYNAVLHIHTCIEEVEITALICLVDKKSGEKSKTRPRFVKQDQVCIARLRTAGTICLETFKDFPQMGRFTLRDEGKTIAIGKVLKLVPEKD
Protocol: as §2

endogenous IKZF1 = biological target: T3, endogenous IKZF1 (Homo sapiens, UniProt Q13422+Q96SW2); assay: Immunoblot analysis of endogenous protein; conditions: both NCI-H929 and MV-4-11 cells, 24 h, greater than pomalidomide
T3 construct: endogenous in cells; host or cells: NCI-H929 and MV-4-11
T3 sequence (Q13422 whole entry): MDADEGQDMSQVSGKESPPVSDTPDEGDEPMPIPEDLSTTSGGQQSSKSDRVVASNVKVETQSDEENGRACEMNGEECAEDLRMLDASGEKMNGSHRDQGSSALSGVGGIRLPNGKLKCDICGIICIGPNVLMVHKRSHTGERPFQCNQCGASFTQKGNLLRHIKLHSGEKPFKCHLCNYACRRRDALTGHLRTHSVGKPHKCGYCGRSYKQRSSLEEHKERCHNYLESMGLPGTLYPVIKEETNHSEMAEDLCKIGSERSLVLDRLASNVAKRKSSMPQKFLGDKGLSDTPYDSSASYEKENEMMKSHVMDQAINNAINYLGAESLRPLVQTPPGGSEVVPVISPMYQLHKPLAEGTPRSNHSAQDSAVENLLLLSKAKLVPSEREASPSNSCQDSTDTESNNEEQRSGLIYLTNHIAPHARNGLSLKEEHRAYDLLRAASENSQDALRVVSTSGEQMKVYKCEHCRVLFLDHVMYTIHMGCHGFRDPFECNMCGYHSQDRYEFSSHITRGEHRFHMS
T3 sequence (Q96SW2 whole entry): as the sequence (Q96SW2 whole entry partner) above
T3 sequence (Q16531 whole entry partner): as the sequence (Q16531 whole entry partner) above
Protocol: as §2

endogenous IKZF3 = biological target: T4, endogenous IKZF3 (Homo sapiens, UniProt Q96SW2+Q9UKT9); assay: Immunoblot analysis of endogenous protein; conditions: both NCI-H929 and MV-4-11 cells, 24 h, greater than pomalidomide
T4 construct: endogenous in cells; host or cells: NCI-H929 and MV-4-11
T4 sequence (Q9UKT9 whole entry): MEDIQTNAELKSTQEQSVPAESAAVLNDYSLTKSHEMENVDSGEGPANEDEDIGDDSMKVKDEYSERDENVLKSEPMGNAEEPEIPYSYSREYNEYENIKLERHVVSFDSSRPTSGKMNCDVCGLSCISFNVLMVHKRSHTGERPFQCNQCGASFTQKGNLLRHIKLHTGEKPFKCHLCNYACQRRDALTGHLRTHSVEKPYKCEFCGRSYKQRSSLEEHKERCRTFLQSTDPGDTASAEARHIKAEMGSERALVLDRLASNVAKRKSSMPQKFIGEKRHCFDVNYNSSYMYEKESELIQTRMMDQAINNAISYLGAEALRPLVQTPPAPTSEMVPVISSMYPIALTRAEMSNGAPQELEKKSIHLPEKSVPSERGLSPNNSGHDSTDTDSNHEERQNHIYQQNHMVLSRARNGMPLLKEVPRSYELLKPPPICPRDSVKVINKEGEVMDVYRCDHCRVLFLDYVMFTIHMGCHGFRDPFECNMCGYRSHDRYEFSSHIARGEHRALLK
T4 sequence (Q96SW2 whole entry): as the sequence (Q96SW2 whole entry partner) above
T4 sequence (Q16531 whole entry partner): as the sequence (Q16531 whole entry partner) above
Protocol: as §2

[1] = system: control vector NCI-H929 cells; assay: Cell apoptosis assay, control vector cells
Protocol: […] NCI-H929 and MV-4-11 cells were seeded at a density of 1 × 10^6 cells/well in 6-well tissue culture-treated plates. According to the manufacturer’s protocol (Santa Cruz Biotechnology, Inc, Dallas, TX, USA), CRBN CRISPR/Cas9 knockout Plasmid (#sc-412142), CRBN HDR plasmid (#sc-412142-HDR), UltraCruz® Transfection Reagent (#sc-395739) were pre-mixed in Plasmid Transfection Medium (#sc-108062) at a 1:1:2 mass ratio, and cells were transiently transfected in a 37°C, 5% CO2 incubator. After 72 h of infection, the medium was replaced with complete medium containing 3 μg/mL puromycin for 5–7 days. On day 7, GFP-positive cells were sorted as single cells into 96-well plates. Isolated single-cell clones were screened via western blot analysis, using wild-type NCI-H929 or MV-4-11 cells as positive controls.
Cells (NCI-H929 and MV-4-11) were seeded at a density of 1 × 10^6 cells per well into 6-well dishes. […] Apoptosis was assessed using an Annexin V-FITC kit (#ab14085; Abcam, MA, USA) on a FACS Calibur Flow Cytometer (Becton Dickinson, Franklin Lakes, NJ, USA). For cell cycle analysis, cells were fixed in 75% ethanol (−20°C/overnight), washed with PBS (pH = 7.2–7.4, 1×), treated with RNase A (0.2 mg/mL, 37°C/30 min), stained with PI (10 μg/mL), and analyzed on the same instrument. Finally, the samples were analyzed using a FACS Calibur Flow Cytometer.

SMILES | IC50 (MOLM-13) [µM] | IC50 (MUTZ-1) [µM] | IC50 (NCI-H929) [µM] | IC50 (OPM-2) [µM] | IC50 (RPMI-8226) [µM] | IC50 (SU-DHL-4) [µM] | IC50 (Skm-1) [µM] | IC50 (U2932) [µM] | degradation of endogenous CK1α (endogenous CK1α) | degradation of endogenous GSPT1 (endogenous GSPT1) | degradation of endogenous IKZF1 (endogenous IKZF1) | degradation of endogenous IKZF3 (endogenous IKZF3) | apoptosis (in words) [1]
CN1CCN(Cc2cccc(C(=O)NC3CCC(=O)NC3=O)c2)CC1 (centres unmarked) [MGD-A7, N-(2,6-dioxopiperidin-3-yl)-3-((4-methylpiperazin-1-yl)methyl)benzamide] | 19.3 | 13.2 | 0.67 ± 0.1 | 0.153 | 2.11 | 10.3 | 4.03 | 3.34 | minimal degradation effects | minimal degradation effects | effectively induced the degradation | effectively induced the degradation | induced significant apoptosis
CN1CCN(Cc2cccc(C(=O)NC3CCC(=O)NC3=O)c2F)C(=O)C1 (centres unmarked) [MGD-C9, N-(2,6-dioxopiperidin-3-yl)-2-fluoro-3-((4-methyl-2-oxopiperazin-1-yl)methyl)benzamide] | 9.11 | 10.5 | 0.26 ± 0.03 | 0.0845 | 1.23 | 7.37 | 2.03 | 1.25 | minimal degradation effects | minimal degradation effects | effectively induced the degradation | effectively induced the degradation | induced significant apoptosis
